Reference: patent US11571378B2, “Skin care composition and method of using the same” (The Procter & Gamble Company, priority 2021, dated 2023)
No end group written: not given here.

Experiments:
PPARA [SEQ ID NO: 2] = experiment: Gene Modulation Assay, PPARA expression (qPCR); format: cell-based
Procedure: (§1) This method provides a way to measure the ability of a compound or material to modulate the expression of a target gene such as PPARA [SEQ ID NO: 2] or MSMO1 [SEQ ID NO: 3]. • Cells: tert keratinocytes (tKC)
(§2) BJ Fibroblasts • Plating: Cells are plated the day before treatment. • For tert keratinocytes: 100,000 cells/well in 2 ml volume of medium/well for 12-well plates (e.g., Collagen I coated plates, Corning cat #356500), or 50,000 cells/well in 1 ml volume of medium/well for 24-well plates. • For BJ fibroblasts: 88,000 cells/well in 2 ml volume of medium/well for 12-well plates (e.g., Corning cat #3512), or 44,000 cells/well in 1 ml volume of medium/well for 24-well plates. • Medium: For tert keratinocytes: EpiLife (e.g., Thermo Fisher Scientific cat #MEPI500CA+HKGS (e.g., Thermo Fisher Scientific cat #S-001-5). • For BJ Fibroblasts: EMEM (e.g., ATCC cat #30-2003)+10% FBS (e.g., HyClone cat #SH30071.02).
(§3) Treatments are made in media and aliquoted to dose plates. When it is time to treat cells, all plates of cells are removed from the incubator at the same time. Working with one plate at a time, media is removed and treatment is added, as follows: • Media is decanted from plate of cells. • Inverted plate is blotted briefly on paper towels. • Lid is put back onto plate and plate is moved into biosafety cabinet. • Treatments are transferred from dose plate to plate of cells, one column at a time, using a multichannel pipette. Once all plates have been treated, they are moved into incubator at 37° C., with 5% CO2 and 90% humidity. About 15-30 min before the end of the treatment period, cells from representative wells of each treatment are observed via microscope, then plates are returned to the incubator. When treatment time is complete, all plates are removed from incubator. Media is decanted from each plate, and plates are blotted on paper towels. 350 ul Qiagen Buffer RLT is added to each well to lyse cells, and lysates are transferred to 2 ml Eppendorf tubes and stored at −20° C. until ready for genomics.
(§4) Cell lysates are thawed at 4° C. and then isolated using the Biomek FxP and the RNAdvance Tissue Isolation kit (Beckman Coulter, p/n A32646). The resulting RNA is quantified using the Nandrop 8000 (Nanodrop, ND-8000). cDNA is generated using 500 ng of Total RNA and Applied Biosystems High Capacity cDNA with Reverse Transcription kit (Applied Biosystems p/n 4368814). cDNA, assays, and dilutions of PrimeTime GeneExpression MasterMix (IDT, p/n ? ) are plated onto a Wafergen MyDesign SmartChip (TakaraBio, p/n 640036) using the Wafergen Nanodispenser. The chip is then loaded into the SmartChip cycler and qPCR performed using the following PCR conditions:
(§5) Hold stage: 50° C. for 2 minutes (warm up), then 95° C. for 10 minutes.
(§6) PCR stage (40 cycles): 95° C. for 15 seconds, then 60° C. for 1 minute. Export data in .txt file format for analysis.
(§7) Test compositions and control compositions were prepared as described above in the Gene Modulation Assay and tested accordingly. The pal-KT used in this example is PALESTRINA brand pal-KT from Sederma (France), and the ac-PPYL is SYNIORAGE brand tetrapeptide from BASF Care Creations (New Jersey). P+A refers to the combination of pal-KT (P), and ac-PPYL (A) [SEQ ID NO: 1].
(§8) Synergy Factor is calculated as: […]
(§9) A synergy factor greater than 1.00 with p-value ≤0.05 indicates a statistically significant synergistic effect. Preferred synergy factors are 1.3 or greater.
(§10) In this test, the amino acids from pal-KT were rearranged to form a new dipeptide, pal-TK. Test compositions and control compositions were prepared as described above in the Gene Modulation Assay and tested accordingly. Fold change factor is calculated as.
(§11) [formula] A fold change factor of greater than 1 is desired, and a fold change factor of 1.3 or greater is preferred.

MSMO1 [SEQ ID NO: 3] = experiment: Gene Modulation Assay, MSMO1 expression (qPCR); format: cell-based
Procedure: as §1, §2, §3, §4, §5, §6, §7, §8, §9, §10, §11

[1] = pal-KT + ac-PPYL relative to pal-TK + ac-PPYL, all peptides at 1 ppm

| Substance | Fold change vs. control, Ac-PPYL (PPARA [SEQ ID NO: 2]; Ac-PPYL 0.0135 ppm alone) | Fold change vs. control, Ac-PPYL (PPARA [SEQ ID NO: 2]; Ac-PPYL 1 ppm alone) | Fold change vs. control, Ac-PPYL (PPARA [SEQ ID NO: 2]; Ac-PPYL 13.5 ppm alone) | Fold change vs. control, Ac-PPYL (PPARA [SEQ ID NO: 2]; Ac-PPYL 40.5 ppm alone) | Fold change vs. control, Ac-PPYL (MSMO1 [SEQ ID NO: 3]; Ac-PPYL 0.0135 ppm alone) | Fold change vs. control, Ac-PPYL (MSMO1 [SEQ ID NO: 3]; Ac-PPYL 1 ppm alone) | Fold change vs. control, Ac-PPYL (MSMO1 [SEQ ID NO: 3]; Ac-PPYL 13.5 ppm alone) | Fold change vs. control, Ac-PPYL (MSMO1 [SEQ ID NO: 3]; Ac-PPYL 40.5 ppm alone) | Fold change vs. control, Pal-KT (PPARA [SEQ ID NO: 2]; Pal-KT 1 ppm alone) | Fold change vs. control, Pal-KT (PPARA [SEQ ID NO: 2]; Pal-KT 7.5 ppm alone) | Fold change vs. control, Pal-KT (PPARA [SEQ ID NO: 2]; Pal-KT 15 ppm alone) | Fold change factor (PPARA [SEQ ID NO: 2]; [1]) | Fold change vs. control, Pal-KT (MSMO1 [SEQ ID NO: 3]; Pal-KT 1 ppm alone) | Fold change vs. control, Pal-KT (MSMO1 [SEQ ID NO: 3]; Pal-KT 7.5 ppm alone) | Fold change vs. control, Pal-KT (MSMO1 [SEQ ID NO: 3]; Pal-KT 15 ppm alone) | Fold change factor (MSMO1 [SEQ ID NO: 3]; [1]) |
| --- | --- | --- | --- | --- | --- | --- | --- | --- | --- | --- | --- | --- | --- | --- | --- | --- |
| acetyl tetrapeptide-11 (Ac-PPYL) [acetylated tetrapeptide ac-PPYL, available as SYNIORAGE from BASF Care Creations] | 0.70 | 0.69 | 0.67 | 0.71 | 0.377 | 0.496 | 0.510 | 0.560 | – | – | – | – | – | – | – | – |
| palmitoyl dipeptide-7 [Pal-KT] | – | – | – | – | – | – | – | – | 1.26 | 1.43 | 1.59 | greater than 1.3 | 4.32 | 4.69 | 5.63 | greater than 1.3 |
